Data from publication PMC3199943, “Screening the MayBridge Rule of 3 Fragment Library for Compounds That Interact with the Trypanosoma brucei myo-Inositol-3-Phosphate Synthase and/or Show Trypanocidal Activity” (Molecular Biology International, 2011).
Read-outs that look alike come from different tables or passages of the source.

How the values were obtained:
HeLa cells = test: cells; settings: for viability at 500 µM / CC50: Homo sapiens, HeLa; for viability at 500 µM: 65 h; for CC50: read-out: HeLa ED50; for HeLa Cells Alamar Blue: Supplementary Table 1
Outline: (§1)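 Viability by Alamar Blue (5 h) after ~65 h drug treatment; seeding density 2 × 10^4 cells/well in DMEM supplemented with 10% FCS and 2 mM L-Glutamine.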

TbINO1 = target: T1, TbINO1 (Trypanosoma brucei brucei, UniProt Q5QQ46); test: biochemical; assay type: binding
T1 sequence (Q5QQ46 1-528): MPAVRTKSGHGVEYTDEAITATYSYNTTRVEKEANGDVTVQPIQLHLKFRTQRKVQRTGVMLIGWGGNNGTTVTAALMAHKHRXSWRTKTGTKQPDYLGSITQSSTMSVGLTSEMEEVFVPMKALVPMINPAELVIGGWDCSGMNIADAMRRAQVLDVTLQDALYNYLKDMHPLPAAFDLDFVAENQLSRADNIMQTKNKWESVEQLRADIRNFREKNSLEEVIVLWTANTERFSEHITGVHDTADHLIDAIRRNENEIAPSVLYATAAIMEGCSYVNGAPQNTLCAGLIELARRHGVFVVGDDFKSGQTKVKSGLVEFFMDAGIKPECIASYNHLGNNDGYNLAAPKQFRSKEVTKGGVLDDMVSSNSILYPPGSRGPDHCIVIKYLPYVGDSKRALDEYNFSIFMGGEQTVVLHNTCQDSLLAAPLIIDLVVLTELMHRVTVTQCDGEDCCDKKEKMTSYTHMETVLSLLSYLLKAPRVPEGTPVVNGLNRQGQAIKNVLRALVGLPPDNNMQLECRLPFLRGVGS

A549 cells = test: Cytotoxicity against A549 cells, Alamar Blue; assay type: cell-based; settings: Supplementary Table 1, compound 0.5 mM, percentage of controls (n=1); for viability at 500 µM: Homo sapiens, A549, 65 h
Outline: as §1

[1] = read-out: HeLa Cells Alamar Blue
[2] = read-out: Tb Ino1 Tm Shift [˚C]
[3] = read-out: HeLa Cells Alamar Blue (% survival)
[4] = compound 0.5 mM, percentage of controls, mean ± SD (n=3) or SE (n=2)
[5] = Supplementary Table 1, compound 1mM, mean ± SD from Boltzman curve fitting

COc1cccc(OC)c1SC [compound 481, 1,3‐dimethoxy‐2‐(methylthio)benzene]
viability at 500 µM (HeLa cells; [1]): 104 ± 17.6%
ΔTm at 1000 µM (TbINO1; [2]): 0.07 ± 0.08 °C
viability at 500 µM (A549 cells): 103%

CC(=O)N1CCC(C#N)CC1 [compound 207, 1‐acetylpiperidine‐4‐carbonitrile]
viability at 500 µM (HeLa cells; [1]): 90 ± 2.9%
ΔTm at 1000 µM (TbINO1; [2]): 0.03 ± 0.07 °C
viability at 500 µM (A549 cells): 65.3%

O=C1Cc2ccccc2N1 [compound 99, indolin-2-one]
viability at 500 µM (HeLa cells; [1]): 66.6 ± 18.7%
viability at 500 µM (HeLa cells; [3]): 66.6 ± 18.7%
CC50 (HeLa cells): > 2 mM
ΔTm at 1000 µM (TbINO1; read-out: TbIno1 Tm shift [°C]): 2.04 ± 0.07 °C
viability at 500 µM (A549 cells): 229%

CC(=O)c1sc(C)nc1C [compound 226, 1‐(2,4‐dimethyl‐1,3‐thiazol‐5‐yl)ethan‐1‐one]
HeLa Cells Alamar Blue (HeLa cells; [4]): 85.8 ± 10.4 percentage of controls
Tb Ino1 Tm Shift [˚C] (TbINO1; [5]): 0.37 ± 0.1 °C
A549 Cells Alamar Blue (A549 cells): 62 percentage of controls

Cn1nc(C(C)(C)C)cc1N [compound 216, 3‐(tert‐butyl)‐1‐methyl‐1H‐pyrazol‐5‐amine]
HeLa Cells Alamar Blue (HeLa cells; [4]): 80.1 ± 11.3 percentage of controls
Tb Ino1 Tm Shift [˚C] (TbINO1; [5]): 0.15 ± 0.07 °C
A549 Cells Alamar Blue (A549 cells): 56.7 percentage of controls

OCc1ccc(-n2cccc2)cc1 [compound 372, [4-(1H-pyrrol-1-yl)phenyl]methanol]
viability at 500 µM (HeLa cells; [1]): 94.9 ± 19.4%
viability at 500 µM (HeLa cells; [3]): 94.9 ± 19.4%
CC50 (HeLa cells): 3.3 ± 0.21 mM
ΔTm at 1000 µM (TbINO1; read-out: TbIno1 Tm shift [°C]): 3.12 ± 0.04 °C
viability at 500 µM (A549 cells): 52.9%

O=C(O)C1Cc2ccccc2N1 (stereo not shown) [compound 292, indoline-2-carboxylic acid]
viability at 500 µM (HeLa cells; [1]): 37.6 ± 25%
viability at 500 µM (HeLa cells; [3]): 37.6 ± 2.5%
ΔTm at 1000 µM (TbINO1; read-out: TbIno1 Tm shift [°C]): 1.54 ± 0.11 °C
viability at 500 µM (A549 cells): 78.3%

O=C(O)c1ccc2ccccc2n1 [compound 369, 2‐quinolinecarboxylic acid]
viability at 500 µM (HeLa cells; read-out: HeLa Cells Alamar Blue, Supplementary Table 1, compound 0.5 mM, percentage of controls, mean ± SD (n=3) or SE (n=2)): 81.3 ± 14.1%
ΔTm at 1000 µM (TbINO1; Supplementary Table 1, compound 1mM, mean ± SD from Boltzman curve fitting, read-out: Tb Ino1 Tm Shift [˚C]): 0.1 ± 0.67 °C
viability at 500 µM (A549 cells): 152%

OCc1cnccn1 [compound 23, 2‐pyrazinylmethanol]
viability at 500 µM (HeLa cells; [1]): 77.5 ± 12.3%
ΔTm at 1000 µM (TbINO1; [2]): 0.27 ± 0.07 °C
viability at 500 µM (A549 cells): 75.9%

CN1N=C(C(F)(F)F)CC1=O [compound 315, 1‐methyl‐3‐(trifluoromethyl)‐4,5‐dihydro‐1H‐pyrazol‐5‐one]
HeLa Cells Alamar Blue (HeLa cells; [4]): 109.2 ± 4.4 percentage of controls
Tb Ino1 Tm Shift [˚C] (TbINO1; [5]): 0.09 ± 0.08 °C
A549 Cells Alamar Blue (A549 cells): 88.3 percentage of controls

CC(=O)c1cc(Cl)sc1Cl [compound 590, 1‐(2,5‐dichloro‐3‐thienyl)ethan‐1‐one]
viability at 500 µM (HeLa cells; [1]): 97.7 ± 13.9%
ΔTm at 1000 µM (TbINO1; [2]): 0.3 ± 0.07 °C
viability at 500 µM (A549 cells): 130%

O=C(O)c1c[nH]c2ccccc12 [compound 273, 1H‐indole‐3‐carboxylic acid]
viability at 500 µM (HeLa cells; [1]): 85.4 ± 12.2%
ΔTm at 1000 µM (TbINO1; [2]): 0.01 ± 0.05 °C
viability at 500 µM (A549 cells): 61.8%

CCOC(=O)c1[nH]c(C)cc1C [compound 330, ethyl 3,5‐dimethyl‐1H‐pyrrole‐2‐carboxylate]
viability at 500 µM (HeLa cells; [1]): 122 ± 12.3%
ΔTm at 1000 µM (TbINO1; [2]): 0.61 ± 0.06 °C
viability at 500 µM (A549 cells): 156%

COC(=O)c1cccc(C)c1 [compound 185, methyl 3‐methylbenzoate]
viability at 500 µM (HeLa cells; [1]): 106 ± 10.4%
ΔTm at 1000 µM (TbINO1; [2]): 0.14 ± 0.09 °C
viability at 500 µM (A549 cells): 61.3%

Cc1nccc(-c2cccc(N)c2)n1 [compound 493, 3‐(2‐methylpyrimidin‐4‐yl)aniline]
viability at 500 µM (HeLa cells; [1]): 65.9 ± 17%
ΔTm at 1000 µM (TbINO1; [2]): 0.15 ± 0.07 °C
viability at 500 µM (A549 cells): 92.6%

Nc1cccc(Oc2ccccn2)c1 [compound 506, 3‐(pyridin‐2‐yloxy)aniline]
viability at 500 µM (HeLa cells; [1]): 99.2 ± 16.2%
ΔTm at 1000 µM (TbINO1; [2]): 0.23 ± 0.09 °C
viability at 500 µM (A549 cells): 72.5%

N#Cc1cccc(N2CCCC2)c1 [compound 362, 3‐pyrrolidin‐1‐ylbenzonitrile]
viability at 500 µM (HeLa cells; [1]): 97.4 ± 19.9%
ΔTm at 1000 µM (TbINO1; [2]): 0.05 ± 0.07 °C
viability at 500 µM (A549 cells): 63.3%

O=C(O)c1ccccc1-c1ccco1 [compound 520, 2-(2-furyl)benzoic acid]
viability at 500 µM (HeLa cells; [1]): 73 ± 11.5%
viability at 500 µM (HeLa cells; [3]): 73 ± 11.5%
CC50 (HeLa cells): > 20 mM
ΔTm at 1000 µM (TbINO1; read-out: TbIno1 Tm shift [°C]): 4.29 ± 0.07 °C
viability at 500 µM (A549 cells): 124%

O=C(O)c1cccc(-n2cccc2)c1 [compound 511, 3‐(1H‐pyrrol‐1‐yl)benzoic acid]
viability at 500 µM (HeLa cells; [1]): 102 ± 12.3%
ΔTm at 1000 µM (TbINO1; [2]): 0.6 ± 0.08 °C
viability at 500 µM (A549 cells): 73%

COc1ccc(C#N)cn1 [compound 108, 6‐methoxynicotinonitrile]
viability at 500 µM (HeLa cells; [1]): 95 ± 10.2%
ΔTm at 1000 µM (TbINO1; [2]): 0.38 ± 0.07 °C
viability at 500 µM (A549 cells): 125%

Cc1ccc(N)nc1 [compound 16, 5‐methylpyridin‐2‐amine]
viability at 500 µM (HeLa cells; [1]): 101 ± 1.1%
ΔTm at 1000 µM (TbINO1; [2]): 0.12 ± 0.06 °C
viability at 500 µM (A549 cells): 89.4%
